Test results reported in BindingDB's records for doi:10.1016/j.bmc.2021.116215 (Research Triangle Institute, 2021).

Target: Cannabinoid receptor 1 (Homo sapiens, UniProt P21554)
Experiment: Allosteric antagonist activity at human CB1 receptor expressed in CHO-RD-HGA16 cells overexpressing Galpha16 assessed as inhibition of CP55940-stimulated calcium mobilization preincubated for 15 mins followed by agonist addition and measured every 1 sec for 90 secs by Calcium-3 dye based FLIPR assay

Cannabinoid receptor 1, sequence (P21554 whole entry): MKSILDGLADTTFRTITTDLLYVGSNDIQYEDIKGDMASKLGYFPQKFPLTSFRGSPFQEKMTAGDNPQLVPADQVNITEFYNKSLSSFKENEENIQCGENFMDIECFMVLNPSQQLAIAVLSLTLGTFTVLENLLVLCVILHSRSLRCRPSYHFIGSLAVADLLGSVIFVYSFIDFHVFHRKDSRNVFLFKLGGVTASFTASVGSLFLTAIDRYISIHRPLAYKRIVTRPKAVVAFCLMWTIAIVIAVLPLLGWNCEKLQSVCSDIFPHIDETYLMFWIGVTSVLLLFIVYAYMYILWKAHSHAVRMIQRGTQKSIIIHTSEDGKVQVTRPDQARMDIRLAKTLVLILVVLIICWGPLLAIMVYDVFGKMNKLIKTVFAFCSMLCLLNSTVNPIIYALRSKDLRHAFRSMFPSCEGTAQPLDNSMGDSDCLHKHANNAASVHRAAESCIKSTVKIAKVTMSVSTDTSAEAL

O=C(NC[C@H]1C[C@@H]1c1ccccc1)Nc1ccc(Cl)cc1
IC50: 2.51 µM
